Test results from US20140162309A1, “Arsenical Fluorescent Agents and Assays” (priority 2010, published 2014).

Assay: Fluorimetric response of arsenical dye upon introduction of TSH2 (liquid-liquid method)
Description: When unbound, FlAsH-EDT2 is virtually non-fluorescent. Upon binding of four sulfur atoms, free rotation about the As—C bond is restricted, and the dye becomes brightly fluorescent. Since this visualization method labels proteins inside of cells with low background fluorescence, we hypothesized that this molecular sensor could detect the parasite metabolite without interference from other thiols present in biological fluids. The binding of two molecules of TSH2 should prevent the free rotation about the As—C bond in FlAsH, causing a fluorimetric response.
FlAsH-EDT2 was virtually non-fluorescent, but upon introduction of TSH2, the fluorescence intensity rose. After approximately 10 minutes, the reaction reached saturation. […] The excitation and emission maxima for the conjugate were 505 nm and 527 nm respectively. This increase in fluorescence is readily detectable without a fluorimeter using a simple handheld black light such as those used at airport security checkpoints. This detection method could be implemented easily in a low technology, resource poor setting. We examined the limits of detection of the metabolite with FlAsH-EDT2. In our liquid-liquid method, a 10-fold excess of the metabolite is sufficient to observe a fluorimetric response within twenty minutes. Therefore, 2.5 nmol of the dye can be used to detect 25 nmol of the metabolite. While lower concentrations were detectable using a fluorimeter, the conjugation was too slow to be practical. However, FlAsH-EDT2 was not designed and is not optimized for this purpose, and it requires two molecules of TSH2 to bind in order to achieve the desired fluorescence response.

With `O=C(O)c1ccccc1-c1c2ccc(=O)c([As]3SCCS3)c-2oc2c([As]3SCCS3)c(O)ccc12` [FlAsH-EDT2] the “amount of metabolite detected (limit of detection)” value (2.5 nmol of the dye, liquid-liquid method) was 25 nmol, the “time until the reaction reached saturation” value (after introduction of TSH2) was “approximately 10 minutes” and the “excess of the metabolite sufficient to observe a fluorimetric response” value (liquid-liquid method, response within twenty minutes) was 10 fold. For the same compound, the “fluorescence of unbound dye as % of the fluorescence of the FlAsH-(TSH2)2 conjugate” value (normalized fluorescence measurements) was 0.4%.
